In patent publication US9630931B2, “Pharmaceutically active pyrazine derivatives” (Sentinel Oncology Limited, priority 2011, dated 2017):
Where a name gives a salt, the structure may show the parent alone.

Legend:
MOLM-13 cells = experiment: Inhibition of cell growth in MOLM-13 cells (Alamar blue, 72 h); type: cell-based; details: Homo sapiens, 72 h incubation
Method: (§1) Studies were carried out to test the effect of compounds on the inhibition of cell growth in MOLM-13 and MV4-11 cells.
(§2) The following protocol was used:
(§3) (a) Cells were seeded in 96-well plates at cell densities of 2500/well (MOLM-13) and 10,000/well (MV4-11). Cells were then incubated overnight prior to addition of compound or vehicle control.
(§4) (b) Test compounds were prepared from 10 mM DMSO stocks to give a final concentration range of 10 μM, 3 μM, 1 μM, 0.3 μM, […], 0.03 μM, 0.01 μM, […] vehicle control. The DMSO content was constant at 0.1%.
(§5) (c) Test compounds were incubated with the cells for 72 h at 37° C. 5% CO2 in a humidified atmosphere.
(§6) (d) Alamar blue 10% (v/v) was then added and incubated for a further 4 h, and fluorescent product detected using the BMG FLUOstar plate reader.
(§7) (e) Media only background values were subtracted and the data analysed using a 4-parameter logistic equation in GraphPad Prism.

Chk-1 kinase = Chk-1 kinase (Homo sapiens (Human), UniProt O14757); experiment: Chk-1 kinase inhibiting activity (33P-ATP radiometric filter assay, CHKtide substrate); type: biochemical; details: recombinant full length GST-tagged CHK-1 0.5 nM, CHKtide 20 μM, 120 minutes at room temperature; read-out: IC50 against Chk-1 kinase
Method: The compounds of the invention were tested for activity against Chk-1 kinase using the materials and protocols set out below.
Base Reaction buffer: 20 mM Hepes (pH 7.5), 10 mM MgCl2, 1 mM EGTA, 0.02% Brij35, 0.02 mg/ml BSA, 0.1 mM Na3VO4, 2 mM DTT, 1% DMSO
Required cofactors are added individually to each kinase reaction
(i) Prepare indicated substrate in freshly prepared Base Reaction Buffer
(ii) Deliver any required cofactors to the substrate solution above
(iii) Deliver indicated kinase into the substrate solution and gently mix
(iv) Deliver compounds in DMSO into the kinase reaction mixture
(v) Deliver ^33P-ATP (specific activity 0.01 μCi/μl final) into the reaction mixture to initiate the reaction.
(vi) Incubate kinase reaction for 120 minutes at room temperature
(vii) Reactions are spotted onto P81 ion exchange paper (Whatman #3698-915)
(viii) Wash filters extensively in 0.1% phosphoric acid.
(ix) Dry filters and measure counts in scintillation counter
Recombinant full length construct, N-terminal GST tagged, purified from insect cells.
No special measures were taken to activate this kinase.
Final concentration in assay=0.5 nM
Peptide sequence: [[…]]
Final concentration in assay=20 μM
No additional cofactors are added to the reaction mixture
From the results obtained by following the above protocol, the IC50 values against Chk-1 kinase of a number of the compounds of the Examples were determined and these are shown in Table 3.

MV4-11 cells = experiment: Inhibition of cell growth in MV4-11 cells (Alamar blue, 72 h); type: cell-based; details: Homo sapiens, 72 h incubation
Method: as §1, §2, §3, §4, §5, §6, §7

Sequence of Chk-1 kinase (O14757 whole entry): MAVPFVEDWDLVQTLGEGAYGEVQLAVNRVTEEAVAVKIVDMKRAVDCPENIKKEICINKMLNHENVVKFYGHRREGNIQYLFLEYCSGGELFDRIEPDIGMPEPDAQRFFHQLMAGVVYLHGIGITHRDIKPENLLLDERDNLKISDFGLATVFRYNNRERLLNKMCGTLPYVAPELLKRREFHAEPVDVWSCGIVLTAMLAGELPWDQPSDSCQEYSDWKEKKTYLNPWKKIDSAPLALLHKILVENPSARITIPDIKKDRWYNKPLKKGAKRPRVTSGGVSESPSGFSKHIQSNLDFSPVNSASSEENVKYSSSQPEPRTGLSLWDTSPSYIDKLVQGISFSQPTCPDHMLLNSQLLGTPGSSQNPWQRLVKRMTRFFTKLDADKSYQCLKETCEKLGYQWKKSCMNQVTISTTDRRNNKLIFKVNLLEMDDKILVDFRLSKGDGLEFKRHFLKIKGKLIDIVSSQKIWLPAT

| Structure (SMILES) | IC50 (Chk-1 kinase) | IC50 (MV4-11 cells) | IC50 (MOLM-13 cells) |
| --- | --- | --- | --- |
| COc1cc(CCNC(=O)CN2CCN(C)CC2)c(Cl)cc1NC(=O)Nc1cnc(C#N)cn1 [Example 17, N-(2-{2-Chloro-4-[3-(5-cyano-pyrazin-2-yl)-ureido]-5-methoxy-phenyl}-ethyl)-2-(4-methyl-piperazin-1-yl)-acetamide hydrochloride] | 13 nM |  |  |
| COc1cc(CCNCC2CCNCC2)c(Cl)cc1NC(=O)Nc1cnc(C#N)cn1 [Example 1, 1-(5-Chloro-2-methoxy-4-{2-[(piperidin-4-ylmethyl)-amino]-ethyl}-phenyl)-3-(5-cyano-pyrazin-2-yl)-urea hydrochloride] | 0.1 nM | 386 nM | 240 nM |
| COc1cc(CCN[C@@H](C)CN2CCOCC2)c(Cl)cc1NC(=O)Nc1cnc(C#N)cn1 [Example 18, 1-{5-Chloro-2-methoxy-4-[2-((S)-1-methyl-2-morpholin-4-yl-ethylamino)-ethyl]-phenyl}-3-(5-cyano-pyrazin-2-yl)-urea hydrochloride] | 0.52 nM | 175 nM |  |
| COc1cc(CCNC[C@@H]2CNCCO2)c(Cl)cc1NC(=O)Nc1cnc(C#N)cn1 [Example 3, 1-(5-Chloro-2-methoxy-4-{2-[((R)-1-morpholin-2-ylmethyl)-amino]-ethyl}-phenyl)-3-(5-cyano-pyrazin-2-yl)-urea hydrochloride] | 0.14 nM | 173 nM | 81 nM |
| CC(C)Oc1cc(CCNCCN2CCOCC2)c(Cl)cc1NC(=O)Nc1cnc(C#N)cn1 [Example 8, 1-{5-Chloro-2-isopropoxy-4-[2-(2-morpholin-4-yl-ethylamino)-ethyl]-phenyl}-3-(5-cyano-pyrazin-2-yl)-urea hydrochloride] | 0.75 nM | 38 nM | 28 nM |
| COc1cc(CCNCC2CNCCO2)c(Cl)cc1NC(=O)Nc1cnc(C#N)cn1 (centres unmarked) [Example 2, 1-(5-Chloro-2-methoxy-4-{2-[(morpholin-2-ylmethyl)-amino]-ethyl}-phenyl)-3-(5-cyano-pyrazin-2-yl)-urea hydrochloride] | 0.09 nM | 209 nM | 26 nM |
| COc1cc(OCCNCCN2CCOCC2)c(Cl)cc1NC(=O)Nc1cnc(C#N)cn1 [Example 25, 1-{5-Chloro-2-methoxy-4-[2-(2-morpholin-4-yl-ethylamino)-ethoxy]-phenyl}-3-(5-cyano-pyrazin-2-yl)-urea hydrochloride] | 0.61 nM |  |  |
| COc1cc(CCNC(=O)[C@H]2CNCCO2)c(Cl)cc1NC(=O)Nc1cnc(C#N)cn1 [Example 15, (R)-Morpholine-2-carboxylic acid (2-{2-chloro-4-[3-(5-cyano-pyrazin-2-yl)-ureido]-5-methoxy-phenyl}-ethyl)-amide hydrochloride] | 20 nM |  |  |
| CC(C)Oc1cc(CCNCC(=O)N2CCOCC2)c(Cl)cc1NC(=O)Nc1cnc(C#N)cn1 [Example 27, 1-{5-Chloro-2-isopropoxy-4-[2-(2-morpholin-4-yl-2-oxo-ethylamino)-ethyl]-phenyl}-3-(5-cyano-pyrazin-2-yl)-urea hydrochloride] | 0.21 nM | 135 nM |  |
| COc1cc(CCNC(=O)CN2CCOCC2)c(Cl)cc1NC(=O)Nc1cnc(C#N)cn1 [Example 16, N-(2-{2-Chloro-4-[3-(5-cyano-pyrazin-2-yl)-ureido]-5-methoxy-phenyl}-ethyl)-2-morpholin-4-yl-acetamide hydrochloride] | 76 nM |  |  |
| COc1cc(CCNC[C@H]2CNCCO2)c(Cl)cc1NC(=O)Nc1cnc(C#N)cn1 [Example 4, 1-(5-Chloro-2-methoxy-4-{2-[((S)-1-morpholin-2-ylmethyl)-amino]-ethyl}-phenyl)-3-(5-cyano-pyrazin-2-yl)-urea hydrochloride] | 0.05 nM | 111 nM | 49 nM |
| COc1cc(CCNCC(=O)N2CCN(C)CC2)c(Cl)cc1NC(=O)Nc1cnc(C#N)cn1 [Example 26, 1-(5-Chloro-2-methoxy-4-{2-[2-(4-methyl-piperazin-1-yl)-2-oxo-ethylamino]-ethyl}-phenyl)-3-(5-cyano-pyrazin-2-yl)-urea hydrochloride] | 0.58 nM | 800 nM |  |
| CC(C)Oc1cc(CCNC(=O)CN2CCN(C)CC2)c(Cl)cc1NC(=O)Nc1cnc(C#N)cn1 [Example 22, N-(2-{2-Chloro-4-[3-(5-cyano-pyrazin-2-yl)-ureido]-5-isopropoxy-phenyl}-ethyl)-2-(4-methyl-piperazin-1-yl)-acetamide hydrochloride] | 8.2 nM | 519 nM |  |
| COc1cc(CCN[C@@H](C)C(=O)N2CCOCC2)c(Cl)cc1NC(=O)Nc1cnc(C#N)cn1 [Example 28, 1-{5-Chloro-2-methoxy-4-[2-((S)-1-methyl-2-morpholin-4-yl-2-oxo-ethylamino)-ethyl]-phenyl}-3-(5-cyano-pyrazin-2-yl)-urea hydrochloride] | 0.48 nM | 390 nM |  |
| CC(C)Oc1cc(CCNC(=O)[C@H]2CNCCO2)c(Cl)cc1NC(=O)Nc1cnc(C#N)cn1 [Example 20, (R)-Morpholine-2-carboxylic acid (2-{2-chloro-4-[3-(5-cyano-pyrazin-2-yl)-ureido]-5-isopropoxy-phenyl}-ethyl)-amide hydrochloride] | 7.1 nM |  |  |

Continued, in another order:

| IC50 (Chk-1 kinase) | IC50 (MV4-11 cells) | Structure (SMILES) | IC50 (MOLM-13 cells) |
| --- | --- | --- | --- |
| 0.69 nM | 56 nM | COc1cc(CCNCCN2CCN(C)CC2)c(Cl)cc1NC(=O)Nc1cnc(C#N)cn1 [Example 9, 1-(5-Chloro-2-methoxy-4-{2-[2-(4-methyl-piperazin-1-yl)-ethylamino]-ethyl}-phenyl)-3-(5-cyano-pyrazin-2-yl)-urea hydrochloride] | 29 nM |
| 0.27 nM |  | COc1cc(CCN[C@H](C)C2CCN(S(C)(=O)=O)CC2)c(Cl)cc1NC(=O)Nc1cnc(C#N)cn1 [Example 13, 1-(5-Chloro-4-{2-[(R)-1-(1-methanesulfonyl-piperidin-4-yl)-ethylamino]-ethyl}-2-methoxy-phenyl)-3-(5-cyano-pyrazin-2-yl)-urea hydrochloride] |  |
| 1.1 nM |  | COc1cc(CCN[C@H](C)CN2CCOCC2)c(Cl)cc1NC(=O)Nc1cnc(C#N)cn1 [Example 24, 1-{5-Chloro-2-methoxy-4-[2-((R)-1-methyl-2-morpholin-4-yl-ethylamino)-ethyl]-phenyl}-3-(5-cyano-pyrazin-2-yl)-urea hydrochloride] |  |
| 2.9 nM |  | CC(C)Oc1cc(CCN[C@@H](C)C(=O)N2CCOCC2)ccc1NC(=O)Nc1cnc(C#N)cn1 [Example 30, 1-(5-Cyano-pyrazin-2-yl)-3-{2-isopropoxy-4-[2-((S)-1-methyl-2-morpholin-4-yl-2-oxo-ethylamino)-ethyl]-phenyl}-urea hydrochloride] |  |
| 19 nM | 4790 nM | COc1cc(CCN[C@@H](C)CN2CCOCC2)ccc1NC(=O)Nc1cnc(C#N)cn1 [Example 23, 1-(5-Cyano-pyrazin-2-yl)-3-{2-methoxy-4-[2-((S)-1-methyl-2-morpholin-4-yl-ethylamino)-ethyl]-phenyl}-urea hydrochloride] |  |
| 0.4 nM | 202 nM | COc1cc(CCNC[C@H]2CN(C(=O)C3CC3)CCO2)c(Cl)cc1NC(=O)Nc1cnc(C#N)cn1 [Example 14, 1-(5-Chloro-4-{2-[((S)-4-cyclopropanecarbonyl-morpholin-2-ylmethyl)-amino]-ethyl}-2-methoxy-phenyl)-3-(5-cyano-pyrazin-2-yl)-urea hydrochloride] |  |
| 30 nM | 740 nM | N#Cc1cnc(NC(=O)Nc2ccc(CCNCC3CCCCC3)c(Cl)c2)cn1 [Example 12, 1-{3-Chloro-4-[2-(cyclo-hexylmethyl-amino)-ethyl]-phenyl}-3-(5-cyano-pyrazin-2-yl)-urea hydrochloride] | 1600 nM |
| 1.9 nM | 481 nM | COc1cc(CCNCC(=O)N2CCOCC2)c(Cl)cc1NC(=O)Nc1cnc(C#N)cn1 [Example 19, 1-{5-Chloro-2-methoxy-4-[2-(2-morpholin-4-yl-2-oxo-ethylamino)-ethyl]-phenyl}-3-(5-cyano-pyrazin-2-yl)-urea hydrochloride] |  |
| 10 nM | 3760 nM | COc1cc(CCNC[C@H]2CN(C(=O)C3CC3)CCO2)ccc1NC(=O)Nc1cnc(C#N)cn1 [Example 21, 1-(5-Cyano-pyrazin-2-yl)-3-(4-{2-[((S)-4-cyclopropanecarbonyl-morpholin-2-ylmethyl)-amino]-ethyl}-2-methoxy-phenyl)-urea hydrochloride] |  |
